# In ChEMBL document CHEMBL1201862, “PubChem BioAssay data set” (2004):
#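 Five compound concentrations were applied to cells in 96-well plates for 48 hours; endpoints were derived by simple linear interpolation of the resulting dose-response curve. At the GI50, growth is halved.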 Calls of active or inactive are those of the source. Cut-off read from the data, not from the text of the source: active = GI50 up to about 1.1 µM and inactive = higher.
# Columns and labels:
# Assay in all cases: growth of human tumour cells (NCI), 48 h
# [1] = test system: HCT-15
# [2] = test system: HOP-62
# [3] = test system: M14
# [4] = test system: SF-268
# [5] = test system: UACC-62
# [6] = test system: UO-31
# [7] = test system: COLO 205
# [8] = test system: SF-539
# [9] = test system: CCRF-CEM
# [10] = test system: KM12
# [11] = test system: MDA-MB-435
# [12] = test system: K562
# [13] = test system: SW-620
# [14] = test system: OVCAR-5
# [15] = test system: SK-OV-3
# [16] = test system: A549
# [17] = test system: PC-3
# [18] = test system: HCT-116
# [19] = test system: CAKI-1
# [20] = test system: NCI-H226
# [21] = test system: HCC 2998
# [22] = test system: MOLT-4
# [23] = test system: SK-MEL-2
# [24] = test system: SNB-75
# [25] = test system: RPMI-8226
# [26] = test system: SNB-19
# [27] = test system: Hs-578T
# [28] = test system: A498
# [29] = test system: SN12C
# [30] = test system: DU-145
# [31] = test system: OVCAR-4
# [32] = test system: U-251
# [33] = test system: LOX IMVI
# [34] = test system: SF-295
# [35] = test system: NCI/ADR-RES
# [36] = test system: HOP-92
# [37] = test system: T47D
# [38] = test system: TK-10
# [39] = test system: ACHN
# [40] = test system: MDA-MB-231
# [41] = test system: MDA-N
# [42] = test system: 786-0
# [43] = test system: RXF 393
# [44] = test system: UACC-257
# [45] = test system: EKVX
# [46] = test system: SK-MEL-5
# [47] = test system: OVCAR-3
# [48] = test system: MCF7
# [49] = test system: SK-MEL-28
# [50] = test system: NCI-H23
# [51] = test system: NCI-H460
# [52] = test system: Malme-3M
# [53] = test system: HL-60
# [54] = test system: IGROV-1
# [55] = test system: OVCAR-8
# [56] = test system: HT-29
# [57] = test system: NCI-H522
# [58] = test system: SR
smiles,measurement,setting,value
COc1cccc([C@@H]2C/C(=N\NC(=O)C(=O)N[C@@H](C)c3ccccc3)c3ccccc3N2)c1,GI50,[1],> 100 µM
same,GI50,[2],76.6 µM (inactive)
same,GI50,[3],> 100 µM (inactive)
same,GI50,[4],71 µM (inactive)
same,GI50,[5],9.31 µM (inactive)
same,GI50,[6],> 100 µM (inactive)
same,GI50,[7],> 100 µM (inactive)
same,GI50,[8],13.1 µM (inactive)
same,GI50,[9],> 100 µM (inactive)
same,GI50,[10],10.1 µM (inactive)
same,GI50,[11],4.82 µM (inactive)
same,GI50,[12],32.1 µM (inactive)
same,GI50,[13],89.5 µM (inactive)
same,GI50,[14],> 100 µM (inactive)
same,GI50,[15],> 100 µM (inactive)
same,GI50,[16],46.1 µM (inactive)
same,GI50,[17],> 100 µM (inactive)
same,GI50,[18],> 100 µM (inactive)
same,GI50,[19],25.8 µM (inactive)
same,GI50,[20],> 100 µM (inactive)
same,GI50,[21],> 100 µM (inactive)
same,GI50,[22],4.1 µM (inactive)
same,GI50,[23],> 100 µM (inactive)
same,GI50,[24],21.3 µM (inactive)
same,GI50,[25],32.4 µM (inactive)
same,GI50,[26],24.6 µM (inactive)
same,GI50,[27],23.7 µM (inactive)
same,GI50,[28],> 100 µM (inactive)
same,GI50,[29],> 100 µM (inactive)
same,GI50,[30],> 100 µM (inactive)
same,GI50,[31],34.8 µM (inactive)
same,GI50,[32],> 100 µM (inactive)
same,GI50,[33],> 100 µM (inactive)
same,GI50,[34],73.1 µM (inactive)
same,GI50,[35],65.2 µM (inactive)
same,GI50,[36],30.5 µM (inactive)
same,GI50,[37],51.6 µM (inactive)
same,GI50,[38],> 100 µM (inactive)
same,GI50,[39],40.6 µM (inactive)
same,GI50,[40],35.6 µM (inactive)
same,GI50,[41],4.66 µM (inactive)
same,GI50,[42],44.6 µM (inactive)
same,GI50,[43],35.3 µM (inactive)
same,GI50,[44],82 µM (inactive)
same,GI50,[45],61.4 µM (inactive)
same,GI50,[46],14.5 µM (inactive)
same,GI50,[47],> 100 µM (inactive)
same,GI50,[48],7.05 µM (inactive)
same,GI50,[49],> 100 µM (inactive)
CN(C)/C=N\c1cccc2c1NSN2,GI50,[50],> 100 µM (inactive)
same,GI50,[1],> 100 µM
same,GI50,[2],> 100 µM (inactive)
same,GI50,[3],> 100 µM (inactive)
same,GI50,[4],> 100 µM (inactive)
same,GI50,[5],> 100 µM (inactive)
same,GI50,[6],> 100 µM (inactive)
same,GI50,[7],> 100 µM (inactive)
same,GI50,[8],> 100 µM (inactive)
same,GI50,[9],> 100 µM (inactive)
same,GI50,[10],> 100 µM (inactive)
same,GI50,[11],> 100 µM (inactive)
same,GI50,[12],> 100 µM (inactive)
same,GI50,[13],> 100 µM (inactive)
same,GI50,[14],> 100 µM (inactive)
same,GI50,[15],> 100 µM (inactive)
same,GI50,[16],> 100 µM (inactive)
same,GI50,[17],> 100 µM (inactive)
same,GI50,[51],> 100 µM (inactive)
same,GI50,[18],> 100 µM (inactive)
same,GI50,[19],> 100 µM (inactive)
same,GI50,[20],> 100 µM (inactive)
same,GI50,[21],> 100 µM (inactive)
same,GI50,[52],> 100 µM (inactive)
same,GI50,[22],> 100 µM (inactive)
same,GI50,[23],> 100 µM (inactive)
same,GI50,[53],> 100 µM (inactive)
same,GI50,[24],> 100 µM (inactive)
same,GI50,[25],> 100 µM (inactive)
same,GI50,[26],> 100 µM (inactive)
same,GI50,[54],> 100 µM (inactive)
same,GI50,[27],> 100 µM (inactive)
same,GI50,[28],> 100 µM (inactive)
same,GI50,[29],> 100 µM (inactive)
same,GI50,[30],> 100 µM (inactive)
same,GI50,[31],> 100 µM (inactive)
same,GI50,[32],> 100 µM (inactive)
same,GI50,[33],> 100 µM (inactive)
same,GI50,[34],> 100 µM (inactive)
same,GI50,[35],> 100 µM (inactive)
same,GI50,[36],> 100 µM (inactive)
same,GI50,[55],> 100 µM (inactive)
same,GI50,[56],> 100 µM (inactive)
same,GI50,[37],> 100 µM (inactive)
same,GI50,[38],> 100 µM (inactive)
same,GI50,[39],> 100 µM (inactive)
same,GI50,[40],> 100 µM (inactive)
same,GI50,[41],> 100 µM (inactive)
same,GI50,[57],> 100 µM (inactive)
same,GI50,[42],> 100 µM (inactive)
same,GI50,[43],> 100 µM (inactive)
same,GI50,[44],> 100 µM (inactive)
same,GI50,[45],> 100 µM (inactive)
same,GI50,[46],> 100 µM (inactive)
same,GI50,[47],> 100 µM (inactive)
same,GI50,[48],> 100 µM (inactive)
same,GI50,[58],> 100 µM (inactive)
same,GI50,[49],> 100 µM (inactive)
